According to US11634388B2 (Chengdu Easton Biopharmaceuticals Co., Ltd., priority 2018, dated 2023):
Structures can show the parent of a compound that is named as a salt.

Key:
[1] = Determination of the dissolution rate (500 ml medium, 37° C., 50 r/min, HPLC); format: physicochemical
Experimental: (50 r/min). At 5 min, 10 min, 15 min, 20 min, 30 min, 45 min and 60 min, the concentrations of lenvatinib in the medium were determined by using high performance liquid chromatography.

[2] = Stability study of crystal form (XRPD before and after placement); format: physicochemical
[3] = Pharmacokinetic study in rats; format: in vivo; conditions: male, rat, plasma, po; SD rats, intragastric 10 mg/kg, suspension in oil, mean ± SD
Experimental: About 20 mg of the test drug was taken, added into 8 mL of vegetable oil and shaken well, to prepare a 2.5 mg/mL suspension.
6 SD rats, all males, 200-220 g, provided by Chengdu Dashuo Biotechnology Co., Ltd.
The rats were intragastrically administrated with 10 mg/kg of the drug. Before administration and at 5 min, 15 min, 30 min, 1 h, 2 h, 4 h, 6 h, 8 h, 24 h after administration, 0.2 mL of jugular blood was taken and placed in EDTA-K2 anticoagulant tube, centrifuged for 10 min at 3000 r/min. The plasma was separated and frozen in the refrigerator at −80° C. After all blood collections were completed, the blood drug concentration in each blood sample was analyzed and determined autonomously, and the parameters of the test drugs (Tmax, time to maximum plasma concentration; Cmax, maximum plasma concentration; AUClast) were calculated.

[4] = prior art WO2018164436; cited from earlier work
[5] = pH 1.0 medium (hydrochloric acid), 5 min
[6] = pH 6.8 medium (potassium dihydrogen phosphate buffer), 5 min

Question: For `COc1cc2nccc(Oc3ccc(NC(=O)NC4CC4)c(Cl)c3)c2cc1C(N)=O` [Crystal form C, lenvatinib mesylate, reference compound], which “concentration of lenvatinib in the medium” value (shortened to “concentration of lenvatinib”) [1, 5] is on record?
Answer: 410 µg/mL

Question: What about the “concentration of lenvatinib” value ([1]; pH 1.0 medium, 10 min) of the same compound?
Answer: 470 µg/mL

Question: What about the “concentration of lenvatinib” value ([1]; pH 1.0 medium, 15 min) of the same compound?
Answer: 520 µg/mL

Question: What about the “concentration of lenvatinib” value ([1]; pH 1.0 medium, 20 min) of the same compound?
Answer: 550 µg/mL

Question: And the “concentration of lenvatinib” value ([1]; pH 1.0 medium, 30 min)?
Answer: 610 µg/mL

Question: And the “concentration of lenvatinib” value ([1]; pH 1.0 medium, 45 min)?
Answer: 670 µg/mL

Question: What about the “concentration of lenvatinib” value ([1]; pH 1.0 medium, 60 min) of the same compound?
Answer: 720 µg/mL

Question: And the “concentration of lenvatinib” value [1, 6]?
Answer: 2.7 µg/mL

Question: What about the “concentration of lenvatinib” value ([1]; pH 6.8 medium, 10 min) of the same compound?
Answer: 3 µg/mL

Question: And the “concentration of lenvatinib” value ([1]; pH 6.8 medium, 15 min)?
Answer: 3.1 µg/mL

Question: And the “concentration of lenvatinib” value ([1]; pH 6.8 medium, 20 min)?
Answer: 3.2 µg/mL

Question: What about the “concentration of lenvatinib” value ([1]; pH 6.8 medium, 30 min) of the same compound?
Answer: 3.3 µg/mL

Question: And the “concentration of lenvatinib” value ([1]; pH 6.8 medium, 45 min)?
Answer: 3.4 µg/mL

Question: What about the “concentration of lenvatinib” value ([1]; pH 6.8 medium, 60 min) of the same compound?
Answer: 3.5 µg/mL

Question: With `COc1cc2nccc(Oc3ccc(NC(=O)NC4CC4)c(Cl)c3)c2cc1C(N)=O` [Crystal form X, lenvatinib mesylate] as the compound, how does the “concentration of lenvatinib” value [1, 5] read?
Answer: 1480 µg/mL

Question: And the “concentration of lenvatinib” value ([1]; pH 1.0 medium, 10 min)?
Answer: 1540 µg/mL

Question: And the “concentration of lenvatinib” value ([1]; pH 1.0 medium, 15 min)?
Answer: 1540 µg/mL

Question: And the “concentration of lenvatinib” value ([1]; pH 1.0 medium, 20 min)?
Answer: 1520 µg/mL

Question: What about the “concentration of lenvatinib” value ([1]; pH 1.0 medium, 30 min) of the same compound?
Answer: 1560 µg/mL

Question: And the “concentration of lenvatinib” value ([1]; pH 1.0 medium, 45 min)?
Answer: 1570 µg/mL

Question: What about the “concentration of lenvatinib” value ([1]; pH 1.0 medium, 60 min) of the same compound?
Answer: 1600 µg/mL

Question: And the “concentration of lenvatinib” value [1, 6]?
Answer: 3.6 µg/mL

Question: And the “concentration of lenvatinib” value ([1]; pH 6.8 medium, 10 min)?
Answer: 3.8 µg/mL

Question: What about the “concentration of lenvatinib” value ([1]; pH 6.8 medium, 15 min) of the same compound?
Answer: 3.9 µg/mL

Question: What about the “concentration of lenvatinib” value ([1]; pH 6.8 medium, 20 min) of the same compound?
Answer: 3.9 µg/mL

Question: And the “concentration of lenvatinib” value ([1]; pH 6.8 medium, 30 min)?
Answer: 3.9 µg/mL

Question: What about the “concentration of lenvatinib” value ([1]; pH 6.8 medium, 45 min) of the same compound?
Answer: 3.9 µg/mL

Question: And the “concentration of lenvatinib” value ([1]; pH 6.8 medium, 60 min)?
Answer: 4 µg/mL

Question: What about the “crystal transformation before and after the stability tests” value ([2]; all conditions of Table 4) of the same compound?
Answer: did not undergo crystal transformation

Question: And the “Result of crystal form (XRPD)” value ([2]; high humidity 25° C., RH 93.5%, 1 month)?
Answer: No obvious change

Question: And the “Result of crystal form (XRPD)” value ([2]; high humidity 25° C., RH 93.5%, 7 days)?
Answer: No obvious change

Question: What about the “Result of crystal form (XRPD)” value ([2]; strong light illumination, 7 days) of the same compound?
Answer: No obvious change

Question: And the “Result of crystal form (XRPD)” value ([2]; temperature 2~8° C., 10 days)?
Answer: No obvious change

Question: What about the AUC(0-t) [3] of the same compound?
Answer: 90.9 ± 19.6 µg·h/mL

Question: And the Cmax [3]?
Answer: 9.87 µg/mL

Question: What about the Tmax [3] of the same compound?
Answer: 1.17 ± 0.41 h

Question: Which solubility [4] does the source give for `COc1cc2nccc(Oc3ccc(NC(=O)NC4CC4)c(Cl)c3)c2cc1C(N)=O` [crystal form M, lenvatinib mesylate] here?
Answer: not evidently improved
